Test results reported in patent US9556113B2, “Combination uses of dichloroacetate and oxamate, and their prodrugs, for cancer treatment” (The South Dakota Board of Regents, priority 2014, dated 2017).

Columns and labels:
[1] = In vivo release of DCA and oxamate from prodrugs, blood LC/MS/MS; set-up: species or system female C57BL/6 mice; settings: i.p., 7.6 mg/mouse
Protocol: FIG. 16 provides LC/MS chromatograms derived from blood samples of mice dosed with prodrug 1 (AT-N4-001) (A). Mice were dosed with prodrug 1 (7.6 mg/mouse) by i.p. Blood samples were collected at 5 min and 25 min for mice dosed with prodrug 1 through retro-orbital bleeding with mice under general anesthesia. After protein precipitation by acetonitrile, samples were analyzed by LC/MS/MS. For samples derived from mice dosed with prodrug 1, the electrospray ion source was operated in the negative ionization mode for four minutes to detect DCA and oxamate before switched to the positive ionization mode to detect prodrug 1. Selected reaction monitoring (SRM) was performed to monitor the mass transition of 386→297 (1), 127→83 (DCA) and selected ion monitoring (SIM) was performed to monitor oxamate at the m/z of 88.0.
FIG. 17 provides LC/MS chromatograms derived from blood samples of mice dosed with prodrug 2 (AT-N4-002) (B). Mice were dosed with prodrug 2 (7.6 mg/mouse) by i.p. Blood samples were collected at 5 min and 30 min for a mouse dosed with prodrug 2 through retro-orbital bleeding with mice under general anesthesia. After protein precipitation by acetonitrile, samples were analyzed by LC/MS/MS. For samples derived from mice dosed with prodrug 2, all the parameters were the same as set for prodrug 1 except the electrospray ion source was operated in the negative ionization mode for all the analytes. Prodrug 2 was detected by monitoring the mass transition of 384→126.
In vivo release of the prodrugs was investigated with female C57BL/6 mice. Mice were housed four in a cage and received food and water ad libitum. All mice were used at approximately 7-10 weeks of age and given at least one week break after arrival. All experimental protocols were approved by the Institutional Animal Care and Use Committee at South Dakota State University. A prodrug (1 or 2), suspended in 3% (v/v) Tween 80 in saline (30.4 mg/ml), was administered (7.6 mg/mouse) to mice by i.p. Blood samples were obtained through retro-orbital bleeding with mice under general anesthesia through the use of isoflurane. The blood samples were immediately frozen in liquid nitrogen and stored at −80° C. freezer before LC/MS/MS analysis.
The blood sample was quickly thawed at 37° C. The sample (200 μl) was first mixed with acetonitrile ([…]) and centrifuged at 14000 rpm for 2 min at 4° C. The precipitates were washed with additional acetonitrile (2×200 μl) and centrifuged. […]
LC/MS/MS analysis was completed on a ThermoFinnigan TSQ Quantum Ultra triple quadrupole mass spectrometer coupled with an Agilent Eclipse XDB-C18 column ([…], 5 μm) equipped with an Agilent XDB-C8 guard column. […] Prodrug 2 was detected by monitoring the mass transition of 384→126.

[2] = test system: E6E7/Ras MTE cells; assay: Live cell number, trypan blue exclusion assay; type: cell-based, mouse; settings: 1 mM, 2.5 mM and 5 mM, one day, vs DMSO
Protocol: (§1) FIG. 4 illustrates prodrugs AT-N4-001 and AT-N4-002 inhibiting cell proliferation and colony growth of E6E7/Ras MTE cells. (A) E6E7/Ras MTE cultures were treated with DMSO (Con), AT-N4-001, or AT-N4-[…] 002 at the indicated concentration for one day. Live cell number was then determined using a trypan blue exclusion assay. (B) E6E7/Ras MTE cells were seeded on 100-mm plate at 500 cells per plate (in triplicate). After one day, cells were treated as indicated and allowed to grow until colonies of untreated controls reached 50 or more cells (7 days). Plates were stained with Coomassie blue to visualize the colonies. (C) Quantification of colonies described in B. Colonies with more than 15 cells were counted.
E6E7/Ras MTE cells are mouse tonsilar epithelial cells that have been transformed by HPV oncogenes E6 and E7 together with activated ras. They form tumors in mice and are a model of human HPV+HNSCC. These cells were treated in culture with either vehicle control (DMSO), AT-N4-001, or AT-N4-002 at concentrations of 1 mM, 2.5 mM and 5 mM for one day. Live cells were counted using a hemocytometer (FIG. 4A). […] The effects of the compounds on clonogenic growth of the cells were also tested. E6/E7/Ras MTE cells were seeded in 100 mm plates in triplicate, and the next day cells were treated with either vehicle control DMSO, 5 mM AT-N4-001, 5 mM AT-N4-002, or 10 mM DCA. […]

[3] = test system: E6E7/Ras MTE cells; assay: Clonogenic growth (colony formation); type: cell-based, mouse; settings: 7 days; for number of colonies compared to DCA treated cultures (FIG. 4C): 5 mM prodrug vs 10 mM DCA; for colony size (FIG. 4B): 5 mM prodrugs, 10 mM DCA, vs DMSO
Protocol: as §1
E6E7/Ras MTE cells are mouse tonsilar epithelial cells that have been transformed by HPV oncogenes E6 and E7 together with activated ras. They form tumors in mice and are a model of human HPV+HNSCC. These cells were treated in culture with either vehicle control (DMSO), AT-N4-001, or AT-N4-002 at concentrations of 1 mM, 2.5 mM and 5 mM for one day. Live cells were counted using a hemocytometer (FIG. 4A). […] The effects of the compounds on clonogenic growth of the cells were also tested. E6/E7/Ras MTE cells were seeded in 100 mm plates in triplicate, and the next day cells were treated with either vehicle control DMSO, 5 mM AT-N4-001, 5 mM AT-N4-002, or 10 mM DCA. DCA was used at a twice the concentration because the prodrugs each carry two molecules of DCA.

[4] = test system: E6E7/Ras cells; assay: Lactate secretion into culture medium, enzyme based assay; type: cell-based, mouse; settings: 5 mM each, 4 hours
Protocol: FIG. 5 illustrates the reduction of lactate secretion in cultured cells by prodrugs AT-N4-001 and AT-N4-002. E6E7Ras cells were plated in 100 mm dishes and grown to confluence. The medium was changed to bicarbonate-free DMEM-10% FBS with or without the indicated treatments (5 mM each). Four hours later the medium was collected and lactate was measured using an enzyme based assay from Eton Bioscience. Con indicates the control samples for the DCA and Oxamate samples. DMSO indicates the vehicle only control for the AT-N4-001 and AT-N4-002 prodrug samples.
AT-N4-001 and AT-N4-002 should each release two molecules of DCA and one molecule of oxamate. Both DCA and oxamate are expected to reduce cellular lactate production. Therefore, we examined the changes in lactate after treatment of E6E7/Ras cells with the prodrugs. E6E7/Ras cells were seeded into 100 mm dishes and the next day treated with 5 mM AT-N4-001, 5 mM AT-N4-002, 5 mM DCA plus 5 mM oxamate, or 5 mM DCA alone. Culture medium was collected after 4 hours of treatment and lactate levels were determined (FIG. 5). […] To confirm the effects of these compounds on lactate production, the extra cellular acidification rate (ECAR) was measured using a Seahorse XF24 Extracellular Flux analyzer. Since lactate is transported from cells together with a proton, acidification of the culture medium (ECAR) is an estimate of lactate production and the glycolytic rate of cells. In the experiment shown in FIG. 6A, ECAR measurements were initiated in the absence of glucose. At point A, glucose was added and ECAR measurements continued. […] At point B, additional glucose along with vehicle (control), DCA plus oxamate, or AT-N4-002 was added. […] This is shown by a bar graph in FIG. 6B.

NC(=O)C(=O)OCC(COC(=O)C(Cl)Cl)OC(=O)C(Cl)Cl (stereo not drawn) [AT-N4-002, 3-(2-amino-2-oxoacetoxy)propane-1,2-diyl bis(2,2-dichloroacetate)]
release of DCA and oxamate in vivo [1]: quickly released DCA and oxamate | prodrug in blood samples ([1]; after 30 min): No prodrug was detected | live cell number (FIG. 4A) [2]: significant reductions in live cell number | number of colonies compared to DCA treated cultures (FIG. 4C) [3]: significantly lower | colony size (FIG. 4B) [3]: approximately equal reductions in colony size | lactate production (culture medium, FIG. 5) [4]: significantly reduce lactate production

NC(=O)C(=O)OC(COC(=O)C(Cl)Cl)COC(=O)C(Cl)Cl [AT-N4-001, 2-(2-Amino-2-oxoacetoxy)propane-1,3-diyl bis(2,2-dichloroacetate)]
release of DCA and oxamate in vivo [1]: quickly released DCA and oxamate | prodrug in blood samples ([1]; after 25 min): No prodrug was detected | live cell number (FIG. 4A) [2]: significant reductions in live cell number | number of colonies compared to DCA treated cultures (FIG. 4C) [3]: significantly lower | colony size (FIG. 4B) [3]: approximately equal reductions in colony size | lactate production (culture medium, FIG. 5) [4]: significantly reduce lactate production
